Read-outs that look alike come from different tables or passages of the source.
Experiments:
Format in all cases: cell-based, human
[1] = system: MCF-7 breast cancer cells; experiment: DNA biosynthesis assay ([3H]-thymidine incorporation), MCF-7; conditions: read-out: IC50, DNA biosynthesis
Procedure: The study of the antiproliferative properties (intensity of [^3H]-thymidine incorporation into cell DNA) of the tested derivatives against tested cell lines (MCF-7, MDA-MB-231, MCF-10A) was performed after 24 h incubation with varied concentrations of the tested compounds in the medium (0.5–5 µM) in 6-well plates (baseline seeding density: 5 × 10^5 cells/well). After 24 h the medium was removed, the cells were washed with PBS (Corning, Kennebunk, ME, USA), and a fresh medium was added. After that, the cells were treated with 0.5 µCi of tritium-labeled thymidine (specific activity 7 Ci/mmol) by incubating them with this compound for 4 h under the same conditions as the cell culture. In the first step, the medium was removed, and the cell monolayer was washed twice with 1 mL of 0.05 M Tris-HCl buffer pH 7.4 containing 0.11 M NaCl. To denature proteins, the cells were washed twice with 1 mL of 5% trichloroacetic acid (TCA) solution. Finally, cell lysis was performed by adding 1 mL of 0.1 M sodium hydroxide (NaOH) solution containing 1% sodium dodecyl sulfate (SDS) to each well. After five minutes, the obtained cell lysates were transferred to scintillation vials with 2 mL of scintillation fluid added to them beforehand. Radioactivity was measured using the Scintillation Counter 1900 TR, TRI-CARB (Packard, Perkin Elmer, Inc., San Jose, CA, USA). The intensity of DNA biosynthesis in the analyzed cells was expressed in terms of dpm/well. The result of the radioactivity measurement in the control cells (without the addition of tested compounds) was taken as 100%, while the values of cells incubated with the tested compounds were presented as a percentage of the control value.

Bcl-2 = Bcl-2 protein level by flow cytometry, MDA-MB-231; conditions: 24 h
Procedure: For this purpose, Akt (PE), Bax (FITC), Bcl-2 (Alexa Fluor® 647), LC3A/B (Alexa Fluor® 488), and p53 (Alexa Fluor® 488) antibodies conjugated to different fluorochromes (all from Cell Signaling Technology, Beverly, MA, USA) were utilized. Each assay was performed according to the manufacturer's protocol available on their website. After incubation with the tested compounds, the cells were centrifuged, resuspended in 4% formaldehyde (100 μL/1 × 10^6 cells), and fixed for 15 min at room temperature. Afterward, to remove the formaldehyde, the cells were washed by centrifugation with excess PBS and the permeabilization step was triggered. For this purpose, ice-cold 90% methanol was added to the pre-chilled cell pellet, gently vortexed, and incubated for 1 h on ice. Later, the cells were washed by centrifugation with excess PBS again, resuspended in 100 μL of 1:100 diluted primary antibody (stain buffer was used for dilution), and incubated for 1 h at room temperature in the dark. After incubation, the cells were washed, resuspended in 300 μL PBS, and immediately tested with a flow cytometer (BD FACSCanto II, BD Biosciences Systems, San Jose, CA, USA; 10,000 events measured). The obtained results were analyzed using the FACSDiva 6.0 software (BD Biosciences Systems, San Jose, CA, USA). In the case of the p53 protein, the MRF values were obtained first during the flow cytometer readout utilizing FACSDiva software and later analyzed using FCS Express 7 (De Novo Software, Pasadena, CA, USA). The equipment calibration was performed using the BD Cytometer Setup and Tracking Beads (BD Biosciences, San Diego, CA, USA).

[2] = system: breast cancer cells (MCF-7 and MDA-MB-231); experiment: Apoptosis induction, summary statements
Procedure: The FITC Annexin V Apoptosis Detection Kit II (BD Pharmingen, San Diego, CA, USA) and a flow cytometer (BD FACSCanto II, BD Biosciences Systems, San Jose, CA, USA) were used in this evaluation. The assay was performed according to the manufacturer’s instructions. Flow cytometer calibration was performed by preparing two controls—a positive and a negative control. […] The negative control was cells that were not treated with any of the proapoptotic agents. First, in the cells treated with the tested compounds as well as the controls, the medium was removed, and the cells were washed twice with cold PBS. Subsequently, the cells were resuspended in the binding buffer included in the kit at a concentration of 1 × 10^6 cells/mL. From each sample, 100 µL of cell suspension was taken and transferred to test tubes, to which 5 µL each of FITC annexin V and propidium iodide (PI) were then added. The contents of the test tubes were gently vortexed and incubated for 15 min at room temperature, protected from light. After the required time, the contents of the test tubes were made up to 500 µL with binding buffer and immediately analyzed in a flow cytometer (10,000 events measured). After the flow cytometer readout, the results were analyzed using the FACSDiva 6.0 software (BD Biosciences Systems, San Jose, CA, USA). […]

[3] = Viability (MTT) and DNA biosynthesis, summary statements over the tested cell lines; conditions: human; MTT, 24 h; range over the tested cell lines; read-out: IC50, cytotoxic activity (range over cell lines)
Procedure: The MTT assay was used to determine the cytotoxic effects of the compounds in the study on MCF-7 and MDA-MB-231 breast cancer cells as well as MCF-10A normal human breast epithelial cells based on Carmichael’s method. All cultured cell lines were treated with varied concentrations of the tested compounds in the medium (0.5–5 µM) and incubated for 24 h in an incubator providing optimal conditions for cell culture growth (37 °C temperature, 5% CO2, and 90–95% humidity) in 6-well plates (baseline seeding density: 5 × 10^5 cells/well). After this time, the medium was removed, and the cell monolayer was washed with warm phosphate-buffered saline (PBS) without calcium and magnesium. In the next step, PBS and MTT solution in PBS (5 mg/mL) were added to each well to obtain a final MTT concentration of 0.5 mg/mL, and then the cells were incubated for 4 h (37 °C temperature, 5% CO2, 90–95% humidity). After the incubation period, the contents of each well were removed, 1 mL of DMSO was added to dissolve the formazan, and then the plate with the added DMSO was mixed for 5–10 min on a microplate shaker (Boeco, Hamburg, Germany). Then, 10 µL of Sorensen’s glycine buffer (a solution of 0.1 M glycine and 0.1 M sodium chloride adjusted to pH 10.5 with 0.1 M sodium hydroxide) was added. The absorbance of the obtained solution was immediately measured at a wavelength of λ = 570 nm using a Thermo Scientific Evolution 201 UV–VIS spectrophotometer (Thermo Fisher Scientific, Waltham, MA, USA). The absorbance result obtained in the control cells (without the addition of the tested compounds) was taken as 100%, while the viability of cells incubated with the tested compounds was presented as a percentage of the control value.
The study of the antiproliferative properties (intensity of [^3H]-thymidine incorporation into cell DNA) of the tested derivatives against tested cell lines (MCF-7, MDA-MB-231, MCF-10A) was performed after 24 h incubation with varied concentrations of the tested compounds in the medium (0.5–5 µM) in 6-well plates (baseline seeding density: 5 × 10^5 cells/well). After 24 h the medium was removed, the cells were washed with PBS (Corning, Kennebunk, ME, USA), and a fresh medium was added. […] Radioactivity was measured using the Scintillation Counter 1900 TR, TRI-CARB (Packard, Perkin Elmer, Inc., San Jose, CA, USA). The intensity of DNA biosynthesis in the analyzed cells was expressed in terms of dpm/well. The result of the radioactivity measurement in the control cells (without the addition of tested compounds) was taken as 100%, while the values of cells incubated with the tested compounds were presented as a percentage of the control value.

Structure (SMILES) | IC50 ([1]; MCF-7, 24 h incubation) [nM] | Bcl-2 negative cells ± SD (Bcl-2; MDA-MB-231, 0.5 μM) [%] | Bcl-2 negative cells ± SD (Bcl-2; MDA-MB-231, 1 μM) [%] | development of necrosis in the breast cancer cell lines (in words) [2] | IC50 ([1]; Homo sapiens, MCF7, 24 h) [nM] | IC50 at 24 h [3] [nM]
N.N.[Cl][Pt][Cl] [Cisplatin, reference compound] | > 5000 | 4.3 ± 0.3 | 4.5 ± 0.6 | – | – | –
CC(=O)C[Se]C(=O)c1ccc(C(=O)[Se]CC(C)=O)cc1 [EDAG-1, Se,Se-bis(2-oxopropyl) benzene-1,4-bis(carboselenoate)] | – | 36.1 ± 1.6 | 68.9 ± 5.7 | did not affect the development of necrosis | 790 ± 20 | 410 to 710
CC(=O)C[Se]C(=O)c1cc(C(=O)[Se]CC(C)=O)cc(C(=O)[Se]CC(C)=O)c1 [EDAG-8, Se,Se,Se-tris-(2-oxopropyl) benzene-1,3,5-tris-(carboxyselenoate)] | – | 51.7 ± 3.5 | 74.9 ± 2.7 | did not affect the development of necrosis | 960 ± 70 | 410 to 710
